Paper PMC12274840 (The Journal of Biological Chemistry, 2025)
“And” between values parts separate entries of the source, which are not always exact repeats. Identical values can stand only once. Like-named read-outs stand apart in the source and are kept apart here.

What was measured:
[1] = tested on: E. coli KA797 cells carrying pUK21 with TEM-1 Y105G; assay type: cell-based, Escherichia coli; conditions: in combination with 100 μg/ml carbenicillin
[2] = tested on: E. coli KA797 cells carrying pUK21 with NmcA (pelB/Sec); experiment: microbe, parasite or virus in culture; assay type: cell-based; conditions: in combination with 25 μg/ml carbenicillin
[3] = tested on: E. coli KA797 cells carrying pUK21 with CTX-M-14 WT (Tat); experiment: microbe, parasite or virus in culture; assay type: cell-based; conditions: in combination with 100 μg/ml carbenicillin
[4] = tested on: E. coli KA797 cells carrying BlaC position 105 library; assay type: cell-based, Escherichia coli; conditions: for Fi AVG (average fitness): average of replicates
[5] = tested on: E. coli KA797 cells carrying pUK21 with CTX-M-14 Y105R; assay type: cell-based, Escherichia coli; conditions: in combination with 100 μg/ml carbenicillin
[6] = tested on: E. coli KA797 cells carrying pUK21 with TEM-1 Y105R; assay type: cell-based, Escherichia coli; conditions: in combination with 100 μg/ml carbenicillin
[7] = biological target: T1, BlaC WT (Mycobacterium tuberculosis, UniProt P9WKD3); assay type: biochemical
T1 construct: correspond to residue numbers 41-307 of BlaC (Uniprot entry P9WKD3-1); His tag with TEV cleavage site (N); made in house; host or cells: E. coli BL21 (DE3) pLysS

[8] = tested on: E. coli KA797 cells carrying pUK21 with TEM-1 WT (Sec); experiment: microbe, parasite or virus in culture; assay type: cell-based; conditions: in combination with 100 μg/ml carbenicillin
[9] = tested on: E. coli KA797 cells carrying pUK21 with KPC-2 (Tat); experiment: microbe, parasite or virus in culture; assay type: cell-based; conditions: in combination with 100 μg/ml carbenicillin
[10] = biological target: TEM-1 WT (Escherichia coli, UniProt P62593); assay type: biochemical; parameters: 24 to 286 of TEM-1 (P62593); His tag with TEV cleavage site (N); made in house; host or cells: E. coli BL21 (DE3) pLysS; conditions: clavulanic acid, TEM-1 WT
[11] = tested on: E. coli KA797 cells carrying CTX-M-14 position 105 library; assay type: cell-based
[12] = tested on: E. coli KA797 cells carrying pUK21 with CTX-M-14 Y105G; assay type: cell-based, Escherichia coli; conditions: in combination with 100 μg/ml carbenicillin
[13] = tested on: E. coli KA797 cells carrying pUK21 with BlaC I105R; assay type: cell-based, Escherichia coli; conditions: in combination with 100 μg/ml carbenicillin
[14] = biological target: TEM-1 Y105G (Escherichia coli, UniProt P62593, Y103G); experiment: In vitro inhibition of nitrocefin hydrolysis and simulation of inhibition curves, TEM-1 Y105G; assay type: biochemical; conditions: clavulanic acid, simulation Eq 2/8
[15] = tested on: E. coli KA797 cells carrying pUK21 with BlaC I105G; assay type: cell-based, Escherichia coli; conditions: in combination with 100 μg/ml carbenicillin
[16] = tested on: E. coli KA797 cells carrying pUK21 with BlaC WT (Tat); experiment: microbe, parasite or virus in culture; assay type: cell-based; conditions: in combination with 100 μg/ml carbenicillin

T1 sequence (P9WKD3 41-307): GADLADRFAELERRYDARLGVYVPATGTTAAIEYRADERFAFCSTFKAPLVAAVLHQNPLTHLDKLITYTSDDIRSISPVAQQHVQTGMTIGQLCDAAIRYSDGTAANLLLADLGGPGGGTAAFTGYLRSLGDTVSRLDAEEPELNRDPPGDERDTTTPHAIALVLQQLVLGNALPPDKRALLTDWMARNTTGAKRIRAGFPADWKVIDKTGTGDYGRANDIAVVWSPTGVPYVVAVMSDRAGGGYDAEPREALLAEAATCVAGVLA

Work on `O=C(O)[C@H]1/C(=C/CO)O[C@@H]2CC(=O)N21` [clavulanic acid] yielded an MIC of inhibitor [1] of 32 µg/mL, an MIC of inhibitor [2] of 2 µg/mL and an MIC of inhibitor [3] of 1 µg/mL. The “Significance of average fitness” value ([4]; AA 105 Ala (BlaC I105A)) was “+”, the “Fi AVG (average fitness)” value ([4]; AA 105 Ala (BlaC I105A), relative to WT Ile) was 0.441 and the “Significance of average fitness” value ([4]; AA 105 Arg (BlaC I105R)) was “+”. The “Fi AVG (average fitness)” value ([4]; AA 105 Arg (BlaC I105R), relative to WT Ile) was 0.649, the “Fi AVG (average fitness)” value ([4]; AA 105 Asn (BlaC I105N), relative to WT Ile) was -0.00565 and the “Fi AVG (average fitness)” value ([4]; AA 105 Asp (BlaC I105D), relative to WT Ile) was -0.195. For the same molecule, the “Fi AVG (average fitness)” value ([4]; AA 105 Cys (BlaC I105C), relative to WT Ile) was 0.048, the “Fi AVG (average fitness)” value ([4]; AA 105 Gln (BlaC I105Q), relative to WT Ile) was -0.027 and the “Fi AVG (average fitness)” value ([4]; AA 105 Glu (BlaC I105E), relative to WT Ile) was -0.066. For the same molecule, the “Significance of average fitness” value ([4]; AA 105 Gly (BlaC I105G)) was “+”, the “Fi AVG (average fitness)” value ([4]; AA 105 Gly (BlaC I105G), relative to WT Ile) was 0.325 and the “Fi AVG (average fitness)” value ([4]; AA 105 His (BlaC I105H), relative to WT Ile) was 0.091. The “Fi AVG (average fitness)” value ([4]; AA 105 Ile (BlaC WT, reference)) was 0.000, the “Fi AVG (average fitness)” value ([4]; AA 105 Leu (BlaC I105L), relative to WT Ile) was 0.152 and the “Fi AVG (average fitness)” value ([4]; AA 105 Lys (BlaC I105K), relative to WT Ile) was 0.212. For the same molecule, the “Fi AVG (average fitness)” value ([4]; AA 105 Met (BlaC I105M), relative to WT Ile) was 0.159, the “Significance of average fitness” value ([4]; AA 105 Phe (BlaC I105F)) was “+” and the “Fi AVG (average fitness)” value ([4]; AA 105 Phe (BlaC I105F), relative to WT Ile) was 0.271. For the same molecule, the “Fi AVG (average fitness)” value ([4]; AA 105 Pro (BlaC I105P), relative to WT Ile) was 0.200, the “Significance of average fitness” value ([4]; AA 105 Ser (BlaC I105S)) was “+” and the “Fi AVG (average fitness)” value ([4]; AA 105 Ser (BlaC I105S), relative to WT Ile) was 0.440. For the same molecule, the “Significance of average fitness” value ([4]; AA 105 Thr (BlaC I105T)) was “+”, the “Fi AVG (average fitness)” value ([4]; AA 105 Thr (BlaC I105T), relative to WT Ile) was 0.421 and the “Fi AVG (average fitness)” value ([4]; AA 105 Trp (BlaC I105W), relative to WT Ile) was 0.208. For the same molecule, the “Significance of average fitness” value ([4]; AA 105 Tyr (BlaC I105Y)) was “+”, the “Fi AVG (average fitness)” value ([4]; AA 105 Tyr (BlaC I105Y), relative to WT Ile) was 0.298 and the “Fi AVG (average fitness)” value ([4]; AA 105 Val (BlaC I105V), relative to WT Ile) was 0.071. The “WT abs Fi 1” value ([4]; absolute fitness of BlaC WT (Ile 105), replicate 1) was -0.077, the “WT abs Fi 2” value ([4]; absolute fitness of BlaC WT (Ile 105), replicate 2) was 0.311 and the MIC of inhibitor [5] was 1 µg/mL. The MIC of inhibitor [6] was 2 µg/mL, the k1 [7] was 1e+06 M⁻¹ s⁻¹ and the k2 [7] was 4.5 and 4.5 10^−2 s^−1. It also gave a k3 [7] of 1.8, an MIC of inhibitor [8] of 2 µg/mL and an MIC of inhibitor [9] of 1 µg/mL. For the same molecule, the k2 ([10]; simulation Eq 2/8) was 8 10^−2 s^−1, the k3 ([10]; simulation Eq 2/8) was 1.8 10^−3 s^−1 and the k1 ([10]; simulation Eq 8) was 900000 M⁻¹ s⁻¹. The “Significance of average fitness” value ([11]; CTX-M-14 AA 105 Arg) was “-”, the “Significance of average fitness” value ([11]; CTX-M-14 AA 105 Gly) was “+” and the “Significance of average fitness” value ([11]; CTX-M-14 AA 105 Trp) was “+”. For the same molecule, the “WT abs Fi 1 (absolute fitness of wild type, Replicate 1)” value ([11]; CTX-M-14 WT (Tyr 105)) was -0.544, the “WT abs Fi 2 (absolute fitness of wild type, Replicate 2)” value ([11]; CTX-M-14 WT (Tyr 105)) was -0.635 and the MIC of inhibitor [12] was 1 µg/mL. The MIC of inhibitor [13] was 4 µg/mL, the k2 [14] was 9.6 10^−2 s^−1 and the k3 [14] was 3.1 10^−3 s^−1. The MIC of inhibitor [15] was 1 µg/mL and the MIC of inhibitor [16] was 0.5 µg/mL.
